Read-outs that look alike come from different tables or passages of the source. Values belong to the molecule of their own block, whether it stands above or below them.
Experiments:
[1] = system: apomorphine-induced climbing; assay: Apomorphine-induced climbing in mice; assay type: in vivo; conditions: for block of apomorphine-induced climbing: versus either compound alone; for ED50: Mus musculus, read-out: ED50 for apomorphine block; for dose for increased efficacy with co-administration: co-administration with haloperidol
Experimental: (Compound 2, “cpd 2”) to exemplify, the present Example describes four experiments in which a compound of formula I, was administered in combination with either a typical (exemplified by haloperidol) or atypical (exemplified by clozapine). The combination reduced apomorphine-induced climbing without side effects.
(§1) Mice were acclimated to the climbing cages for at least 1 hour and then dosed with either the vehicle or a dose of haloperidol or clozapine followed by a dose of either vehicle or a dose of Compound 1. Thirty minutes after dosing all mice received 1 mg/kg, s.c. apomorphine and returned to the climbing cages. Five minutes after apomorphine the mice were observed and scored for climbing and stereotypy every 5 minutes for the 30 minute test session.

stereotypy = assay: Apomorphine-induced stereotypy scored in the climbing test; assay type: in vivo, mice
Experimental: as §1

[2] = system: haloperidol induced catalepsy; assay: Catalepsy (bar test), extra-pyramidal side effect liability; assay type: in vivo, mice; conditions: for dose for increased EPS liability with co-administration: co-administration with haloperidol, mice
Experimental: (Compound 2, “cpd 2”) to exemplify, the present Example describes an experiment in which a compound of formula I was administered in combination with haloperidol to assess extra-pyramidal side effect liability, as represented by cataleptic behavior. [table] [table] [table] Mice were dosed with either the vehicle or a dose of haloperidol followed by a dose of either vehicle or a dose of Compound 1 or Compound 2. Thirty, 60, 90 and 120 minutes after dosing, the forelegs are draped over a thin horizontal rod 1.75″ high. The number of seconds up to 60 sec for which the mouse remains on the bar is recorded at each test point and presented as the percent of maximum possible response (60 sec).

[3] = system: conditioned avoidance responding; assay: Conditioned avoidance responding; assay type: in vivo; conditions: rats
Experimental: (Compound 2, “cpd 2”) to exemplify, the present Example describes an experiment to determine the effect of co-administration of haloperidol (0.54 mg/kg, i.p. 30′ pretreatment) or clozapine (5.4 mg/kg, i.p., 30′ pretreatment) and compound 1 (0.54 mg/kg, i.p., 30′ pretreatment) or compound 2 (1 mg/kg, i.p. 30′ pretreatment) on conditioned avoidance responding.
Male rats had been trained to a stable criterion performance of 90% avoidance responding and had been used in previous drug studies. The dosing plan was a within subject pseudo random design so that all rats received all treatments over several weeks. On test days in experiments 1 and 2 the rats were dosed with vehicle, Compound 1, haloperidol or clozapine or a combination of Compound 1/haloperidol or Compound 1/clozapine. On test days in experiments 3 and 4 the rats were dosed with vehicle, Compound 2, haloperidol or clozapine or a combination of Compound 2/haloperidol or Compound 2/clozapine. Conditioned avoidance testing commenced 30 minutes after treatment and the rats received 50 trials and the number of avoidance, escape and no response trials was recorded.

[4] = sc, 0.5 h, compound alone, mice, apomorphine 1 mg/kg s.c. 30 min after dosing
[5] = administered individually, 0.54 mg/kg i.p., 30 min pretreatment

stereotypy relative to 0.3 haloperidol alone (stereotypy; 0.3 mg/kg haloperidol with all doses of Compound 1 (1.7, 5.4, 17 mg/kg)): decreased stereotypy | decrease in stereotypy (stereotypy; 17 mg/kg Compound 1 and 0.17 mg/kg haloperidol combined treatment group): < 10% | decrease in stereotypy (stereotypy; 17 mg/kg Compound 1 and 5.4 mg/kg clozapine combined treatment): ~13%
Compound: c1cc2c3c(c1)[C@H]1CCC[C@H]1N3CCNC2 [Compound 1]
block of apomorphine-induced climbing ([1]; Compound 1 5.4 & 17 mg/kg co-administered with clozapine 3 & 5.4 mg/kg): greater block | block of apomorphine-induced climbing ([1]; Compound 1 5.4 & 17 mg/kg co-administered with haloperidol 0.17 & 0.3 mg/kg): greater block | ED50 [1, 4]: 17 mg/kg | dose for increased efficacy with co-administration ([1]; mice): 5.4 mg/kg | ED50 for apomorphine block ([1]; compound alone, mice, apomorphine 1 mg/kg s.c. 30 min after dosing): 15.89 mg/kg | catalepsy, percent of maximum catalepsy (60 sec on bar) ([2]; Compound 1 17 mg/kg with 0.17 and 0.3 mg/kg haloperidol, moderate increase, 30-120 min after dosing): up to 30% | dose for increased EPS liability with co-administration [2]: ≥ 17 mg/kg | potentiation of haloperidol-induced catalepsy ([2]; lower doses of Compound 1 (1.7, 5.4 mg/kg) with 0.17 and 0.3 mg/kg haloperidol): failed to potentiate catalepsy | decrease in avoidance responding ([3]; Compound 1 0.54 mg/kg co-administered with clozapine 5.4 mg/kg, i.p.): > 70% | effect on number of no response trials ([3]; Compound 1 0.54 mg/kg co-administered with clozapine 5.4 mg/kg): no adverse effects | decrease in avoidance responding ([3]; Compound 1 0.54 mg/kg co-administered with haloperidol 0.54 mg/kg, i.p.): > 70% | effect on number of no response trials ([3]; Compound 1 0.54 mg/kg co-administered with haloperidol 0.54 mg/kg): no adverse effects | decrease in avoidance responding [3, 5]: ~10%

decrease in stereotypy (stereotypy; 30 mg/kg Compound 2 and 0.17 mg/kg haloperidol combined treatment relative to haloperidol alone): ~30% | decrease in stereotypy (stereotypy; 30 mg/kg Compound 2 and 5.4 mg/kg clozapine combined treatment): ~20%
Compound: c1cc2c3c(c1)[C@H]1CCC[C@H]1CN3CCNC2 [Compound 2]
block of apomorphine-induced climbing ([1]; Compound 2 3, 10 & 30 mg/kg co-administered with clozapine 3 & 5.4 mg/kg): greater block | block of apomorphine-induced climbing ([1]; Compound 2 3, 10 & 30 mg/kg co-administered with haloperidol 0.1 & 0.17 mg/kg): greater block | ED50 ([1]; co-administered with 0.1 mg/kg of haloperidol, mice): 2.4 mg/kg | ED50 ([1]; co-administered with 0.17 mg/kg of haloperidol, mice): 4.1 mg/kg | ED50 ([1]; compound alone, Experiment 4, mice): 27.1 mg/kg | ED50 [1, 4]: 27.1 mg/kg | dose for increased efficacy with co-administration ([1]; mice): 3 mg/kg | potentiation of haloperidol-induced catalepsy ([2]; Compound 2 10 mg/kg with haloperidol 0.1 and 0.17 mg/kg): failed to potentiate | dose for increased EPS liability with co-administration [2]: > 10 mg/kg | decrease in avoidance responding ([3]; Compound 2 1 mg/kg co-administered with clozapine 5.4 mg/kg, i.p.): > 60% | effect on number of no response trials ([3]; Compound 2 1 mg/kg co-administered with clozapine 5.4 mg/kg): no adverse effects | decrease in avoidance responding ([3]; Compound 2 1 mg/kg co-administered with haloperidol 0.54 mg/kg, i.p.): > 50% | effect on number of no response trials ([3]; Compound 2 1 mg/kg co-administered with haloperidol 0.54 mg/kg): no adverse effects

Compound: CN1CCN(C2=Nc3cc(Cl)ccc3Nc3ccccc32)CC1 [clozapine, 8-chloro-11-(4-methyl-1-piperazinyl)-5H-dibenzo[b,e]-[1,4]-diazepine, reference compound]
decrease in avoidance responding ([3]; administered individually, 5.4 mg/kg i.p., 30 min pretreatment): ~10%

Compound: O=C(CCCN1CCC(O)(c2ccc(Cl)cc2)CC1)c1ccc(F)cc1 [haloperidol, 4-[4-(4-chlorophenyl)-4-hydroxy-1-piperidinyl]-1-(4-fluoro-phenyl)-1-butanone, reference compound]
decrease in avoidance responding [3, 5]: ~10%
